Here are results for one compound from patent EP1283052A1, “Pharmaceutical composition containing caspase-8 and /or caspase-9 useful for overcoming glucocorticoid- and cancer therapy-induced apoptosis of tumours” (Deutsches Krebsforschungszentrum Stiftung des öffentlichen …, priority 2001, dated 2003).

One experiment relates to caspase-3. As to the kind of experiment: Fluorometric caspase-3 activity assay in CEM leukemic T cells. It counts as cell-based, human. The conditions noted are these: cisplatin 2 µg/ml alone, Fig. 1c. As to the method: • (a) Human epidermoid lung cancer cells (P693) were injected into nude mice. At a tumour volume of 500 mm^3 weekly treatment with cisplatin (5mg/kg/week) was started. Cisplatin was injected intraperitoneally in the absence (CIS) or presence (DEX/CIS) of DEX which was added to the drinking water (0.28 mg/L) for the duration of the experiment. […] As controls, tumor growth of xenografts from mice which received neither cisplatin nor DEX (CO) or from mice which received DEX only (DEX) was determined. The tumour volume in each animal was measured at weekly intervals for a period of 5 weeks. Data are presented as the means +/- SD of 6 to 8 animals. • (b) The human cervical carcinoma cell lines HeLa and P5 were γ-irradiated (10 Gy) or treated with cisplatin (2 µg/ml) in the absence (white bars) or presence (black bars) of DEX (1 µM). The percentage of apoptosis was measured in untreated (CO) and stimulated cells by annexin-staining and FACS-analysis at the time points indicated. (c) P5, P693 and human leukemic T cells (CEM) cells were treated with cisplatin (2 µg/ml) in the absence or presence of DEX as indicated. 24 and 48 h following treatment cells were lysed and caspase-3 activity was determined by a fluorescent caspase-3 assay and spectroscopy.

In the next experiment the test system is P5 cells. As to the kind of experiment: P5 xenografts in nude mice, intratumoural therapy, tumour volume. It counts as in vivo. Particulars: Fig. 7. As to the method:
P5 cells were injected subcutaneously in nude mice. At a tumour volume of 500 mm^3 therapy was started (day 0) and repeated at day 2 and 12 as indicated by arrows. A total volume of 100 µl in PBS was injected intratumoural containing liposomes and cisplatin (5mg/kg), or liposomes with cisplatin and a mixture of recombinant caspase-8 and -9 proteins (10 U each) and pcDNA3caspase-8 and pcDNA3caspase-9 expression vectors (10 µg each) in the absence (CIS) or presence of DEX (DEX/CIS), (DEX/CIS/CASPASES) in the drinking water (0.28 mg/L). As controls, tumour growth of xenografts from untreated mice (CO) or from mice which received liposomes and empty pcDNA3 expression vector only (CO/Liposomes) was determined. The tumour volume in each animal was measured every second day for a period of 16 days. […]
• (A) Cell culture. […] The mice were given 0.28 mg/L DEX in drinking water, and the amount of water consumed was monitored. […] The tumour volumes were measured using callipers, and calculated using, as an approximation, the formula for volume of a hemi-ellipsoid: π(width^2 x length)/6. […] Early apoptotic changes were identified by staining of cells with fluoresceinthiocyanate (FITC)-conjugated annexin V and propidium iodide (Becton Dickinson, Heidelberg, Germany) and analysed by flow cytometry (FACScan, Becton Dickinson) as described (Herr et al., EMBO J. 16 (1997), 6200-6208) • (E) Immunohistochemistry. […]

Turning to `N.N.[Cl][Pt][Cl]` [cisplatin], in the experiment on caspase-3, the caspase-3 activity result is recorded as “responded earlier at 24 h with increased activity at 48 h”. Also, the tumour growth result in the experiment on P5 cells (cisplatin 5mg/kg with liposomes intratumoural, day 0, 2 and 12, initial phase) was “initially reduced”; with P5 cells (cisplatin-treated tumours at day 10 after treatment), “developed resistance and started to grow”.
